Source: patent US20150344957A1, “MONITORING TREATMENT OF HISTIOCYTOSIS WITH VEMURAFENIB AND DABRAFENIB” (TROVAGENE, INC., priority 2014, published 2015)
“Also recorded” adds a separate entry of the source.

Tested on: BRAF V600E mutation in urinary cfDNA
Experiment: Monitoring of BRAF V600E mutation in urinary cfDNA (droplet digital PCR) of treated LCH/ECD patients
Format: in vivo, human
Conditions: for detection of mutant BRAF V600E in urine cfDNA, treatment naive versus treated patient samples: FIG. 3, treated versus treatment-naive samples; for BRAF V600E mutation burden in urinary cfDNA over time on therapy: histiocytosis (LCH/ECD) patients, serial urine samples during treatment, FIG. 4-6
Procedure: Urinary cell-free (cf)DNA analysis was performed in all patients and plasma cfDNA analysis in 19/26 patients. Serial urinary samples in 10 BRAF V600E mutant samples were also obtained to track disease burden with therapy. Urine and plasma cfDNA were quantified by a droplet digital PCR (ddPCR; QX-100, BioRad).
A two-step assay design was developed for a 28-30 basepair footprint in the target mutant gene sequence. FIG. 1 summarizes the assay design, which includes a first preamplification step to increase the number of copies of a target mutant gene sequence relative to wild-type gene sequences that are present in the sample. The pre-amplification is conducted in the presence of a wild-type (non-mutant) suppressing “WT blocker” oligonucleotide that is complementary to the wild-type sequence (but not the mutant sequence) to decrease amplification of wild-type DNA. The pre-amplification is performed with primers that include adapters (or “tags”) at the 5′ end to facilitate amplification in the second step.
The second step is additional amplification with primers complementary to the tags on the ends of the primers used in the first step and a TaqMan (reporter) probe oligonucleotide complementary to the mutant sequence for quantitative, digital droplet PCR.

| Structure (SMILES) | detection of mutant BRAF V600E in urine cfDNA, treatment naive versus treated patient samples | BRAF V600E mutation burden in urinary cfDNA over time on therapy | BRAF V600E mutation in urinary cfDNA after the end of treatment (one subject, end of treatment, FIG. 6) |
| --- | --- | --- | --- |
| CC(C)(C)c1nc(-c2cccc(NS(=O)(=O)c3c(F)cccc3F)c2F)c(-c2ccnc(N)n2)s1 [dabrafenib, N-{3-[5-(2-aminopyrimidin-4-yl)-2-tert-butyl-1,3-thiazol-4-yl]-2-fluorophenyl}-2,6-difluorobenzenesulfonamide] | decreased detection of mutant BRAF V600E | a decrease in the mutation in cfDNA during the course of treatment | – |
| CCCS(=O)(=O)Nc1ccc(F)c(C(=O)c2c[nH]c3ncc(-c4ccc(Cl)cc4)cc23)c1F [vemurafenib, N-{3-[5-(4-Chlorophenyl)-1H-pyrrolo[2,3-b]pyridin-3-carbonyl]-2,4-difluorophenyl}propane-1-sulfonamide] | decreased detection of mutant BRAF V600E | a decrease in the mutation in urinary cfDNA; also recorded: decreased BRAF mutant allele burden with therapy | an increase, or “rebound,” in the amount of the mutation in urinary cfDNA |
